# Reference: ChEMBL document CHEMBL1201862, “PubChem BioAssay data set” (2004)
#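 Briefly, cells in 96-well plates were exposed to five compound concentrations for 48 h, and endpoints were estimated by linear interpolation. The concentration for 50% growth inhibition is given as GI50.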 Calls of active or inactive are those of the source. No stated cut-off is given here; in the data, active = GI50 up to about 1.1 µM and inactive = higher.
# Key:
# Assay in all cases: inhibition of tumour cell growth, NCI panel, 48 h
# IGROV-1 = test system: IGROV-1
# A498 = test system: A498
# SR = test system: SR
# EKVX = test system: EKVX
# SF-268 = test system: SF-268
# Malme-3M = test system: Malme-3M
# NCI-H460 = test system: NCI-H460
# RXF 393 = test system: RXF 393
# OVCAR-5 = test system: OVCAR-5
# KM12 = test system: KM12
# HT-29 = test system: HT-29
# HCT-116 = test system: HCT-116
# OVCAR-8 = test system: OVCAR-8
# KM-20L2 = test system: KM-20L2
# CCRF-CEM = test system: CCRF-CEM
# HOP-92 = test system: HOP-92
# 786-0 = test system: 786-0
# OVCAR-4 = test system: OVCAR-4
# K562 = test system: K562
# SNB-75 = test system: SNB-75
# DMS-114 = test system: DMS-114
# M14 = test system: M14
# LXFL 529 = test system: LXFL 529
# SK-MEL-5 = test system: SK-MEL-5
# ACHN = test system: ACHN
# UACC-257 = test system: UACC-257
# SN12C = test system: SN12C
# RPMI-8226 = test system: RPMI-8226
# M19-MEL = test system: M19-MEL
# SF-295 = test system: SF-295
# SK-OV-3 = test system: SK-OV-3
# HCC 2998 = test system: HCC 2998
# DMS-273 = test system: DMS-273
# CAKI-1 = test system: CAKI-1
# U-251 = test system: U-251
# NCI-H522 = test system: NCI-H522
# SF-539 = test system: SF-539
# COLO 205 = test system: COLO 205
# SK-MEL-28 = test system: SK-MEL-28
# MOLT-4 = test system: MOLT-4
# TK-10 = test system: TK-10
# NCI-H226 = test system: NCI-H226
# UO-31 = test system: UO-31
# XF498 = test system: XF498
# SK-MEL-2 = test system: SK-MEL-2
# LOX IMVI = test system: LOX IMVI
# DLD-1 = test system: DLD-1
# OVCAR-3 = test system: OVCAR-3
# NCI-H23 = test system: NCI-H23
# HCT-15 = test system: HCT-15
# SW-620 = test system: SW-620
# HOP-62 = test system: HOP-62
# SNB-78 = test system: SNB-78
# HL-60 = test system: HL-60
# RXF 631 = test system: RXF 631
# A549 = test system: A549
# UACC-62 = test system: UACC-62
# SNB-19 = test system: SNB-19
# HOP-18 = test system: HOP-18
smiles,measurement,setting,value
COc1ccc2nc3c(c(NCCCN(C)C)c2c1)CCCC3,GI50,IGROV-1,19.3 µM (inactive)
same,GI50,A498,20.3 µM (inactive)
same,GI50,SR,2.42 µM (inactive)
same,GI50,EKVX,17.4 µM (inactive)
same,GI50,SF-268,> 10 µM (inactive)
same,GI50,Malme-3M,19.7 µM (inactive)
same,GI50,NCI-H460,10.3 µM (inactive)
same,GI50,RXF 393,14.8 µM (inactive)
same,GI50,OVCAR-5,13.5 µM (inactive)
same,GI50,KM12,12.5 µM (inactive)
same,GI50,HT-29,5.41 µM (inactive)
same,GI50,HCT-116,4.74 µM (inactive)
same,GI50,OVCAR-8,15 µM (inactive)
same,GI50,KM-20L2,6.7 µM (inactive)
same,GI50,CCRF-CEM,4.83 µM (inactive)
same,GI50,HOP-92,5.28 µM (inactive)
same,GI50,786-0,15.4 µM (inactive)
same,GI50,OVCAR-4,4.43 µM (inactive)
same,GI50,K562,2.25 µM (inactive)
same,GI50,SNB-75,13.2 µM (inactive)
same,GI50,DMS-114,13.9 µM (inactive)
same,GI50,M14,13.3 µM (inactive)
same,GI50,LXFL 529,12.7 µM (inactive)
same,GI50,SK-MEL-5,15.8 µM (inactive)
same,GI50,ACHN,20.4 µM (inactive)
same,GI50,UACC-257,17 µM (inactive)
same,GI50,SN12C,17.2 µM (inactive)
same,GI50,RPMI-8226,6.25 µM (inactive)
same,GI50,M19-MEL,17.1 µM (inactive)
same,GI50,SF-295,14.6 µM (inactive)
same,GI50,SK-OV-3,20.5 µM (inactive)
same,GI50,HCC 2998,8.81 µM (inactive)
same,GI50,DMS-273,11.8 µM (inactive)
same,GI50,CAKI-1,11.9 µM (inactive)
same,GI50,U-251,15.5 µM (inactive)
same,GI50,NCI-H522,14.9 µM (inactive)
same,GI50,SF-539,16.8 µM (inactive)
same,GI50,COLO 205,10.8 µM (inactive)
same,GI50,SK-MEL-28,16.9 µM (inactive)
same,GI50,MOLT-4,3.4 µM (inactive)
same,GI50,TK-10,26.1 µM (inactive)
same,GI50,NCI-H226,16.3 µM (inactive)
same,GI50,UO-31,16 µM (inactive)
same,GI50,XF498,4.15 µM (inactive)
same,GI50,SK-MEL-2,17.3 µM (inactive)
same,GI50,LOX IMVI,12.8 µM (inactive)
same,GI50,DLD-1,7.66 µM (inactive)
same,GI50,OVCAR-3,19.4 µM (inactive)
same,GI50,NCI-H23,17.1 µM (inactive)
same,GI50,HCT-15,16.3 µM
same,GI50,SW-620,10.7 µM (inactive)
same,GI50,HOP-62,16.4 µM (inactive)
same,GI50,SNB-78,7.83 µM (inactive)
same,GI50,HL-60,7.67 µM (inactive)
same,GI50,RXF 631,14.9 µM (inactive)
same,GI50,A549,21.4 µM (inactive)
same,GI50,UACC-62,16.8 µM (inactive)
same,GI50,SNB-19,21.6 µM (inactive)
CC(=O)NNc1nc(C)c(C(=O)/C=C/c2ccc(Cl)c(Cl)c2)s1,GI50,IGROV-1,> 100 µM (inactive)
same,GI50,A498,> 100 µM (inactive)
same,GI50,EKVX,> 100 µM (inactive)
same,GI50,SF-268,> 100 µM (inactive)
same,GI50,Malme-3M,> 100 µM (inactive)
same,GI50,NCI-H460,> 100 µM (inactive)
same,GI50,RXF 393,> 100 µM (inactive)
same,GI50,OVCAR-5,> 100 µM (inactive)
same,GI50,KM12,> 100 µM (inactive)
same,GI50,HT-29,> 100 µM (inactive)
same,GI50,OVCAR-8,> 100 µM (inactive)
same,GI50,KM-20L2,> 100 µM (inactive)
same,GI50,CCRF-CEM,70.5 µM (inactive)
same,GI50,HOP-92,> 100 µM (inactive)
same,GI50,786-0,> 100 µM (inactive)
same,GI50,K562,> 100 µM (inactive)
same,GI50,SNB-75,> 100 µM (inactive)
same,GI50,DMS-114,> 100 µM (inactive)
same,GI50,SK-MEL-5,> 100 µM (inactive)
same,GI50,HOP-18,> 100 µM (inactive)
same,GI50,ACHN,> 100 µM (inactive)
same,GI50,UACC-257,> 100 µM (inactive)
same,GI50,SN12C,> 100 µM (inactive)
same,GI50,RPMI-8226,> 100 µM (inactive)
same,GI50,M19-MEL,> 100 µM (inactive)
same,GI50,SF-295,> 100 µM (inactive)
same,GI50,SK-OV-3,> 100 µM (inactive)
same,GI50,HCC 2998,> 100 µM (inactive)
same,GI50,DMS-273,> 100 µM (inactive)
same,GI50,CAKI-1,> 100 µM (inactive)
same,GI50,U-251,> 100 µM (inactive)
same,GI50,NCI-H522,95.9 µM (inactive)
same,GI50,SF-539,> 100 µM (inactive)
same,GI50,COLO 205,> 100 µM (inactive)
same,GI50,SK-MEL-28,> 100 µM (inactive)
same,GI50,MOLT-4,> 100 µM (inactive)
same,GI50,TK-10,> 100 µM (inactive)
same,GI50,UO-31,> 100 µM (inactive)
same,GI50,SK-MEL-2,> 100 µM (inactive)
same,GI50,LOX IMVI,> 100 µM (inactive)
same,GI50,DLD-1,> 100 µM (inactive)
same,GI50,OVCAR-3,> 100 µM (inactive)
same,GI50,NCI-H23,> 100 µM (inactive)
same,GI50,HCT-15,> 100 µM
same,GI50,SW-620,> 100 µM (inactive)
same,GI50,HOP-62,> 100 µM (inactive)
same,GI50,SNB-78,> 100 µM (inactive)
same,GI50,HL-60,> 100 µM (inactive)
same,GI50,RXF 631,> 100 µM (inactive)
same,GI50,A549,> 100 µM (inactive)
same,GI50,UACC-62,> 100 µM (inactive)
same,GI50,SNB-19,> 100 µM (inactive)
